Measured values published in patent US11208412B2 (DAEGU-GYEONGBUK MEDICAL INNOVATION FOUNDATION, priority 2017, dated 2021).

What was measured:
Experiment in all cases: Kinase selectivity, DiscoverX scanMAX Kinase assay panel (% control)
Format in all cases: binding
[1] = molecular target: T1, kinases of the scanMAX Kinase assay panel (Homo sapiens, UniProt P42336, C420R); settings: PIK3CA(C420R); 1 uM
T1 construct: purchased DiscoverX Co. (contract measurement) scanMAX Kinase assay panel
Method in brief: (§1)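 Each enzyme is treated with drug at 1 uM in DMSO, then signal is scaled between a positive control (0%) and DMSO (100%) to give % control. Kinases with % control under 35% are scored as inhibited.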

[2] = molecular target: T2, kinases of the scanMAX Kinase assay panel (Homo sapiens, UniProt P22694); settings: PKAC-beta; 1 uM
T2 construct: purchased DiscoverX Co. (contract measurement) scanMAX Kinase assay panel
Method in brief: as §1

[3] = molecular target: T3, kinases of the scanMAX Kinase assay panel (Homo sapiens, UniProt P08069); settings: IGF1R; 1 uM
T3 construct: purchased DiscoverX Co. (contract measurement) scanMAX Kinase assay panel
T3 sequence (P08069 31-1367): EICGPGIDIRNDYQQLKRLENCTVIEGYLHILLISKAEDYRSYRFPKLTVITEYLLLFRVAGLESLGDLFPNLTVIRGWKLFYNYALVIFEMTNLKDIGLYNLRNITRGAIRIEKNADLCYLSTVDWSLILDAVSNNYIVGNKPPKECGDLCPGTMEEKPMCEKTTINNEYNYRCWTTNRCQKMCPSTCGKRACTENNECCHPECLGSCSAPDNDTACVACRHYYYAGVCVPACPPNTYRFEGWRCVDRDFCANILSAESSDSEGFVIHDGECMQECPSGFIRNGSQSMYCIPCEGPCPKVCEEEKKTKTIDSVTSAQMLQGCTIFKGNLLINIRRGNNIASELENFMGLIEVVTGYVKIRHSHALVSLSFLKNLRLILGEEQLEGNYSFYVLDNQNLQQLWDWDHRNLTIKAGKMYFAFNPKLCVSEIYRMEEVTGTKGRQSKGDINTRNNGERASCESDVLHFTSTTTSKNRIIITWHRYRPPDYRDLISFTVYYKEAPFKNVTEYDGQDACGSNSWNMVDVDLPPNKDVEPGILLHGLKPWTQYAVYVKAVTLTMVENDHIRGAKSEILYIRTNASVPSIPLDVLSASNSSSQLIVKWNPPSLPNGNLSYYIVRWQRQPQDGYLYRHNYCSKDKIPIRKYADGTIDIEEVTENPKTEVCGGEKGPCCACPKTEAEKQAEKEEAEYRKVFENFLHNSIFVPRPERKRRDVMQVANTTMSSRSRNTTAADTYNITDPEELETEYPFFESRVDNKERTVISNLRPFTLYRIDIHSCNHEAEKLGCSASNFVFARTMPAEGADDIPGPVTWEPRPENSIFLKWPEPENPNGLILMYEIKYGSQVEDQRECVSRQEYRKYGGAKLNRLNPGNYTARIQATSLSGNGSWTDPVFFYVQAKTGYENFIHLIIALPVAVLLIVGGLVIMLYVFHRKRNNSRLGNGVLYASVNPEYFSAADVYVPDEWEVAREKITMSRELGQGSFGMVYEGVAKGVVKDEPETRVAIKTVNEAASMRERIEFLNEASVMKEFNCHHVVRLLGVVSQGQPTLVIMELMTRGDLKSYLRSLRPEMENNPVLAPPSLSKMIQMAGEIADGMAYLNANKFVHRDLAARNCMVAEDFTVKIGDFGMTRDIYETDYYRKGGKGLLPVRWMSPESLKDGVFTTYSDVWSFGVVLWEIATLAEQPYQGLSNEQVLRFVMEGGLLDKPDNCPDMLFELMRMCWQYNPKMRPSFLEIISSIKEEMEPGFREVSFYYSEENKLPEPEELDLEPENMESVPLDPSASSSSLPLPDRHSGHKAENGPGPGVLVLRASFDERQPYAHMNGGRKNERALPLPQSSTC
Method in brief: as §1

[4] = molecular target: T4, kinases of the scanMAX Kinase assay panel (Homo sapiens, UniProt Q08881); settings: ITK; 1 uM
T4 construct: purchased DiscoverX Co. (contract measurement) scanMAX Kinase assay panel
T4 sequence (Q08881 1-620): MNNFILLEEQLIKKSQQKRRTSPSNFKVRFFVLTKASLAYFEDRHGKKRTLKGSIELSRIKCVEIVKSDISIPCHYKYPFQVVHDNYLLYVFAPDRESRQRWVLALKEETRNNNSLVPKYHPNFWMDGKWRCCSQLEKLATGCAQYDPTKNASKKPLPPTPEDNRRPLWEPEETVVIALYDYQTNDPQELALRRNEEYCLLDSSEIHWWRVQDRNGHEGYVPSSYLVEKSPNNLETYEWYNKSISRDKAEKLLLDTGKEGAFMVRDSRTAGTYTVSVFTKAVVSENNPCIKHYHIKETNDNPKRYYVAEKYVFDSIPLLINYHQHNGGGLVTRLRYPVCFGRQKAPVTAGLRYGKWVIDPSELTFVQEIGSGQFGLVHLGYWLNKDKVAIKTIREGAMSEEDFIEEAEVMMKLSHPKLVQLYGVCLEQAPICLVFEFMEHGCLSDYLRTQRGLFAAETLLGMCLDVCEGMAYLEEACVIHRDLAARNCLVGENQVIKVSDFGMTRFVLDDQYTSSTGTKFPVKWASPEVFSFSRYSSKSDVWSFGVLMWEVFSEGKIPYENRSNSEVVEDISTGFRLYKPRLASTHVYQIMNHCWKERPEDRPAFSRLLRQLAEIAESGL
Method in brief: as §1

[5] = molecular target: T5, kinases of the scanMAX Kinase assay panel (Homo sapiens, UniProt Q15569); settings: kinase TESK1; 1 uM in DMSO
T5 construct: purchased DiscoverX Co. (contract measurement) scanMAX Kinase assay panel
T5 sequence (Q15569 whole entry): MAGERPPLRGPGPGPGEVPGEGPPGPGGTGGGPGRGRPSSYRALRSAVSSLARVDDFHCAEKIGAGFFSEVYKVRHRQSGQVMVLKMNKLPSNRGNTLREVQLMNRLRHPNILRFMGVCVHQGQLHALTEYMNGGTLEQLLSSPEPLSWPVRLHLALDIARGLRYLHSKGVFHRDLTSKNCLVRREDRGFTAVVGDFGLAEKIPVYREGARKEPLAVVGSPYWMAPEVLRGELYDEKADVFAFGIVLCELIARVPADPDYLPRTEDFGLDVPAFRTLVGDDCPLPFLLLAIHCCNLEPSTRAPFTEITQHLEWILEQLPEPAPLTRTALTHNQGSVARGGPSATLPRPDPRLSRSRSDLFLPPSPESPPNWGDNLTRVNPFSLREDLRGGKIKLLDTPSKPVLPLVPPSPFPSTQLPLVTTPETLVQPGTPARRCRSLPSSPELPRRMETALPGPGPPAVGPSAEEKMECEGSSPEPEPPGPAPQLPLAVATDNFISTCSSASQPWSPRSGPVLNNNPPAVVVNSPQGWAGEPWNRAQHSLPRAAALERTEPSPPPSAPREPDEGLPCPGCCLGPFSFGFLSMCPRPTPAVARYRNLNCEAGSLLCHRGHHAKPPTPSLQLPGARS
Method in brief: as §1

[6] = molecular target: T6, kinases of the scanMAX Kinase assay panel (Homo sapiens, UniProt Q9P289); settings: MST4; 1 uM
T6 construct: purchased DiscoverX Co. (contract measurement) scanMAX Kinase assay panel
T6 sequence (Q9P289 whole entry): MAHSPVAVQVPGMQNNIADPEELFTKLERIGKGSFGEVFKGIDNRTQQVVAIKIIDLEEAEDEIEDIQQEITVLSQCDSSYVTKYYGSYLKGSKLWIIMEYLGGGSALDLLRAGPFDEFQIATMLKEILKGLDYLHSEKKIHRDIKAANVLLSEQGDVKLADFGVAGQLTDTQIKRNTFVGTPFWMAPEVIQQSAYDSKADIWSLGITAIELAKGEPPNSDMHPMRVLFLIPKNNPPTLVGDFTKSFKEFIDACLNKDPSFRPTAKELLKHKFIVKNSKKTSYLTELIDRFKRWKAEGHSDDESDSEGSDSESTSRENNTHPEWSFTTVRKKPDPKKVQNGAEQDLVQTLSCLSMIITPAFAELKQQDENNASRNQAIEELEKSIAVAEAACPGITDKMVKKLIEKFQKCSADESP
Method in brief: as §1

[7] = molecular target: T7, kinases of the scanMAX Kinase assay panel (Homo sapiens, UniProt P00533); settings: EGFR; 1 uM
T7 construct: purchased DiscoverX Co. (contract measurement) scanMAX Kinase assay panel
Method in brief: as §1

[8] = molecular target: T8, kinases of the scanMAX Kinase assay panel (Homo sapiens, UniProt Q8N752); settings: CSNK1A1L; 1 uM
T8 construct: purchased DiscoverX Co. (contract measurement) scanMAX Kinase assay panel
T8 sequence (Q8N752 1-337): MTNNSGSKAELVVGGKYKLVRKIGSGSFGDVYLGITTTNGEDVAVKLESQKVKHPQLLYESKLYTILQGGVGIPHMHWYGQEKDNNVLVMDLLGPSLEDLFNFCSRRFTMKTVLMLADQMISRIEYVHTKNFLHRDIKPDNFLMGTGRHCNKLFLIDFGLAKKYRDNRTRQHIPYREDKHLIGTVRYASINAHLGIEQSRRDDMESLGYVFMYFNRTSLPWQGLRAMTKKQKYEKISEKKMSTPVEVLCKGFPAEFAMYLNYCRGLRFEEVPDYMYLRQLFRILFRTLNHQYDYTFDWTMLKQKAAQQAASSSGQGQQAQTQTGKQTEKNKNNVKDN
Method in brief: as §1

[9] = molecular target: T9, kinases of the scanMAX Kinase assay panel (Homo sapiens, UniProt Q6XUX3); settings: kinase RIPK5; 1 uM in DMSO
T9 construct: purchased DiscoverX Co. (contract measurement) scanMAX Kinase assay panel
T9 sequence (Q6XUX3 1-929): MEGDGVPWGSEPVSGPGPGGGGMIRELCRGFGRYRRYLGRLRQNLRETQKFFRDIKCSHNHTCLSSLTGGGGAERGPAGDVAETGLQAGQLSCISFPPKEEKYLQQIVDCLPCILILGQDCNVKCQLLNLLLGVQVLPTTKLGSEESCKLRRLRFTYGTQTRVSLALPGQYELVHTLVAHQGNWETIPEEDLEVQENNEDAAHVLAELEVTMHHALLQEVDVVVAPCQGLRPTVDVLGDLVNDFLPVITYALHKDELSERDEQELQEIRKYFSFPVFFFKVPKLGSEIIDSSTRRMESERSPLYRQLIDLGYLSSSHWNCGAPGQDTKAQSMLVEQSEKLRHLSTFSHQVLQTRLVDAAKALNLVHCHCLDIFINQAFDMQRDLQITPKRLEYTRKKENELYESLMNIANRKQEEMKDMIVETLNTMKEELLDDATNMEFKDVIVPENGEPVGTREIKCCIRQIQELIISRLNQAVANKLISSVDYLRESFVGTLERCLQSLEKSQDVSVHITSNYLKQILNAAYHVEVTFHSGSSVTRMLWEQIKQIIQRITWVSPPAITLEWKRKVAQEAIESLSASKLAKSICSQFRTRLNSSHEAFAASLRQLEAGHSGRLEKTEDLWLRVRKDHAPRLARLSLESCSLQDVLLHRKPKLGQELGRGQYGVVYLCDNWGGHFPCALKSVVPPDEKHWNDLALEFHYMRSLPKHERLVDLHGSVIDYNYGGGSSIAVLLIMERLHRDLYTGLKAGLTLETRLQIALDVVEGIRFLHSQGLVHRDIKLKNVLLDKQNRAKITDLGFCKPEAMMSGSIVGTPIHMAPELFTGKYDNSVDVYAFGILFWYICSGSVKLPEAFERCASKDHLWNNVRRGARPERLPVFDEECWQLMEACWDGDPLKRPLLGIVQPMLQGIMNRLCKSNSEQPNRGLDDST
Method in brief: as §1

[10] = molecular target: T10, kinases of the scanMAX Kinase assay panel (Homo sapiens, UniProt P42338); settings: PIK3CB; 1 uM
T10 construct: purchased DiscoverX Co. (contract measurement) scanMAX Kinase assay panel
T10 sequence (P42338 whole entry): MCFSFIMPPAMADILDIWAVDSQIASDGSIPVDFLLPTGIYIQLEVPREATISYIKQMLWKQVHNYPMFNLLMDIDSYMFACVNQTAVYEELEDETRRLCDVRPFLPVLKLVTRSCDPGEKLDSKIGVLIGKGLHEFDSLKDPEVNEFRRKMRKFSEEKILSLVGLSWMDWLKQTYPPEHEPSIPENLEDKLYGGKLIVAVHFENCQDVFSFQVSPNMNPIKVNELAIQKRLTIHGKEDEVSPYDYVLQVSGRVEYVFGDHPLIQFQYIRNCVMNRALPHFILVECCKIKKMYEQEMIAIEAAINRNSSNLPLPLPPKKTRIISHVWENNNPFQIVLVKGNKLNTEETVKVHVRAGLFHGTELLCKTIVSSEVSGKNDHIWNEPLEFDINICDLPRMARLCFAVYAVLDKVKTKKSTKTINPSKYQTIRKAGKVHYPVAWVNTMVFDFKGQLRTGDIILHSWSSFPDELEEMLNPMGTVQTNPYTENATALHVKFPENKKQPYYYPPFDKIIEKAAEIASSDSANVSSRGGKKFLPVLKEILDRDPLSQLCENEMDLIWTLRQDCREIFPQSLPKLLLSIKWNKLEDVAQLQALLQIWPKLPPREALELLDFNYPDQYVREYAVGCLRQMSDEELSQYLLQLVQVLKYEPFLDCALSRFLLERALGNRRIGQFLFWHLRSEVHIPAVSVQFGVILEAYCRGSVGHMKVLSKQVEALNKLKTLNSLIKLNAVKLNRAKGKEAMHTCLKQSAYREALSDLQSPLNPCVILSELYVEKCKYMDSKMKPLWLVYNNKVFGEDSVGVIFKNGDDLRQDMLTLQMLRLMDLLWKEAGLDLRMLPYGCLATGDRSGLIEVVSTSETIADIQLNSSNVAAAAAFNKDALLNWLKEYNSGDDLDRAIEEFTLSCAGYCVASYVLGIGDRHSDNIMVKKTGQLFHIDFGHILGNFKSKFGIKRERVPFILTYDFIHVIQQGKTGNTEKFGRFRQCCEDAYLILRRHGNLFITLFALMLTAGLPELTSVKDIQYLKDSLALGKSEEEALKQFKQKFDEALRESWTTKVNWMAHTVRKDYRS
Method in brief: as §1

[11] = molecular target: T11, kinases of the scanMAX Kinase assay panel (Homo sapiens, UniProt O43293); settings: DAPK3; 1 uM
T11 construct: purchased DiscoverX Co. (contract measurement) scanMAX Kinase assay panel
T11 sequence (O43293 whole entry): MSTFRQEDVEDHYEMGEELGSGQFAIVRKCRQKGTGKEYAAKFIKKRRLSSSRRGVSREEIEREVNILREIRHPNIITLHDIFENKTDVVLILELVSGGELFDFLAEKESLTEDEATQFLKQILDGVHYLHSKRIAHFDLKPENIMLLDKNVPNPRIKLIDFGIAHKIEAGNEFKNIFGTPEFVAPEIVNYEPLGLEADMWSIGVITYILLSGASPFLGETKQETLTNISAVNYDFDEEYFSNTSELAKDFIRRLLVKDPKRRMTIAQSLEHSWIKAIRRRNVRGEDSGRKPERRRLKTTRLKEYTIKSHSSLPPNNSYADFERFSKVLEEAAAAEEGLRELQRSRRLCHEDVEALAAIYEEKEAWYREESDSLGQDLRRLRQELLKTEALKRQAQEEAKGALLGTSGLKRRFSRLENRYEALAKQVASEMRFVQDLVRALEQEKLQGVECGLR
Method in brief: as §1

T1 sequence (P42336 whole entry C420R): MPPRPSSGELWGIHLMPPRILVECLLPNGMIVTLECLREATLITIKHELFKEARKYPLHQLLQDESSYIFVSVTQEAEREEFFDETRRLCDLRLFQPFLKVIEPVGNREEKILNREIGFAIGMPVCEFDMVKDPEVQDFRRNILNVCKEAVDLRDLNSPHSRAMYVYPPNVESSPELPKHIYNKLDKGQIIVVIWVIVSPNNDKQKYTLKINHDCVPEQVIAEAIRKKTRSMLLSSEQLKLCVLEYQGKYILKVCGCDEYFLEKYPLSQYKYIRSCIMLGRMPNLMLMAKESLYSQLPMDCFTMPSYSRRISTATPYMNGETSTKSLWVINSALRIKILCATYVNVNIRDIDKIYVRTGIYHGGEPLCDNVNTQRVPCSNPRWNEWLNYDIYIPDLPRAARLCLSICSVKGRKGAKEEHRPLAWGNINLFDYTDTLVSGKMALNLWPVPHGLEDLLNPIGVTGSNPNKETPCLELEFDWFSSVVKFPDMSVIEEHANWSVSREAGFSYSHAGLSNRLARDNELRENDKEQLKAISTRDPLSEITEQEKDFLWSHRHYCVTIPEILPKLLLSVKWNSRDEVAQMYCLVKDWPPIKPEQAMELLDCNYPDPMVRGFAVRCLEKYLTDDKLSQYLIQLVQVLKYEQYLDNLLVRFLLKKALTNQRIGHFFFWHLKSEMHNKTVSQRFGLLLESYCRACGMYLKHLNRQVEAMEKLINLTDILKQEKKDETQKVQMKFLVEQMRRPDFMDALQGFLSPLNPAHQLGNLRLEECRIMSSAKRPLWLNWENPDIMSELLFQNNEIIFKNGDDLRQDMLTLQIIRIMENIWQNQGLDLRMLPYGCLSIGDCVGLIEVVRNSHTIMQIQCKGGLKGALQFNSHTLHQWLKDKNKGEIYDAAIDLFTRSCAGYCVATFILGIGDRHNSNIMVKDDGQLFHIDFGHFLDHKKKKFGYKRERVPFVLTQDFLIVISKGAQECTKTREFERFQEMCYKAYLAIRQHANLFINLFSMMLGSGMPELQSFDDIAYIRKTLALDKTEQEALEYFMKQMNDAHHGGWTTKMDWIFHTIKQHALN

Row | Structure (SMILES) | remaining binding at 1 µM [1] [%] | remaining binding at 1 µM [2] [%] | remaining binding at 1 µM [3] [%] | remaining binding at 1 µM [4] [%] | remaining binding at 1 µM [5] [%] | remaining binding at 1 µM [6] [%] | remaining binding at 1 µM [7] [%] | remaining binding at 1 µM [8] [%] | remaining binding at 1 µM [9] [%] | remaining binding at 1 µM [10] [%] | remaining binding at 1 µM [11] [%]
1 | CCNc1nc(Nc2ccc(C(=O)N3CCC(N4CCOCC4)CC3)cc2OC)nc2[nH]cc(C(F)(F)F)c12 [Example 104, (4-((4-(ethylamino)-5-(trifluoromethyl)-7H-pyrrolo[2,3-d]pyrimidine-2-yl)amino)-3-methoxyphenyl)(4-morpholinopiperidine-1-yl)methanone] | 91 | 100 | 12 | 100 | 100 | 100 | 82 | 15 | 18 | 92 | 56
2 | CC1(Nc2nc(Nc3cnn([C@H]4CCN(C5COC5)C[C@@H]4F)c3Cl)nc3[nH]cc(C#N)c23)CC1 [Example 52, 2-((5-chloro-1-((3S,4S)-3-fluoro-1-(oxetane-3-yl)piperidine-4-yl)-1H-pyrazole-4-yl)amino)((1-methylcyclopropyl)amino)-7H-pyrrolo[2,3-d]pyrimidine-5-carbonitrile] | 63 | 95 | 19 | 9.7 | 65 | 28 | 31 | 0.85 | 3.7 | 100 | 8.4
3 | CNc1nc(Nc2ccc(C(=O)N3CCOCC3)cc2OC)nc2[nH]cc(C#N)c12 [Example 1, 2-((2-methoxy-4-(morpholine-4-carbonyl)phenyl)amino)-4-(methylamino)-7H-pyrrolo[2,3-d]pyrimidine-5-carbonitrile] | 94 | 89 | 82 | 99 | 100 | 69 | 91 | 34 | 10 | 96 | 12
